The values below come from patent publication US6414024B1, “GABA and L-glutamic acid analogs for antiseizure treatment” (Northwestern University, priority 1990, dated 2002).

Data set [1] deals with maximal electroshock seizures in mice. In words: Maximal electroshock in mice. It is filed as in vivo. The conditions noted are these: mouse. An excerpt:
For anticonvulsant testing, male CF-1 strain mice (20-25 g) and male Sprague-Dawley rats (75-115 g) were obtained from Charles River Laboratories and were maintained with free access to food and water before testing. Maximal electroshock was delivered with corneal electrodes by conventional methods (Krall, supra, 1975) except that low-intensity electroshock with mice consisted of 17 mA of current rather than the conventional 50 mA (zero to peak). Briefly, mice were given test substance and were tested for prevention of seizures by application of electrical current to the corneas by 2 metal electrodes covered with gauze and saturated with 0.9% sodium chloride. Electroshock stimulation was delivered by a constant-current device that produced 60 Hz sinusoidal electrical current for 0.2 seconds. For rats, maximal electroshock stimulation consisted of 120 mA of current. Ataxia in mice was assessed by the inverted screen procedure in which mice were individually placed on a 4.0-inch square of wire mesh that was subsequently inverted (Coughenour, supra, 1978). Any mouse that fell from the wire mesh during a 60 second test period was rated as ataxic.
All drugs were freely soluble in aqueous media. For in vivo studies, drug solutions were made in 0.9% sodium chloride and given in a volume of 1 mL/100 g body weight. Intravenous administration was given by bolus injection into the retro-orbital sinus in mice. Oral administrations were by intragastric gavage.
In general terms: In the maximal electroshock model the usual endpoint is tonic extension of the hind limbs.

Data set [2] is described as follows: Ataxia in mice (inverted screen procedure). The conditions noted are these: male, CF-1, in vivo, mouse. As for the experimental part: (§1) For anticonvulsant testing, male CF-1 strain mice (20-25 g) and male Sprague-Dawley rats (75-115 g) were obtained from Charles River Laboratories and were maintained with free access to food and water before testing. […] Briefly, mice were given test substance and were tested for prevention of seizures by application of electrical current to the corneas by 2 metal electrodes covered with gauze and saturated with 0.9% sodium chloride. Electroshock stimulation was delivered by a constant-current device that produced 60 Hz sinusoidal electrical current for 0.2 seconds. For rats, maximal electroshock stimulation consisted of 120 mA of current. […] Any mouse that fell from the wire mesh during a 60 second test period was rated as ataxic.

The subject of data set [3] is tonic hindlimb extensor seizures in mice. In words: Threshold maximal (low-intensity) electroshock, tonic extensor seizures. The note with it: for ED50: IV, mouse, 17 mA. It is filed as in vivo. As for the experimental part: Threshold maximum electroshock is an animal model test for generalized seizures that is similar to that of Piredda S G, et al, Pharmacol. and Exptl. Therap. […] The methods for this test are described as follows.
Male CF-1 mice (22-30 g) were allowed free access to food and water prior to testing. For screening, groups of five mice were given a compound intravenously at doses of 30, 100, and 300 mg/kg and tested at 0.5, 2.0, and 4.0 hours after dosing. Drugs were either dissolved in 0.9% saline or suspended in 0.2% methylcellulose. Animals were shocked with corneal electrodes (see below) and observed for tonic hindlimb extensor seizures. Absence of hindlimb extension was taken as an anticonvulsant effect.
The electroshock apparatus delivered a 60 Hz sine wave with a current amplitude of 14 mA (peak-to-peak) for 0.2 seconds.
as §1

Data set [4] addresses T1, Gabapentin Receptor (Rattus norvegicus, UniProt P54290).
T1 construct: partially purified synaptic plasma membranes were prepared from rat neocortex; from tissue; host or cells: rat neocortex synaptic plasma membranes
In words: Gabapentin receptor binding, displacement of [3H]-gabapentin. As for the experimental part: For binding studies, partially purified synaptic plasma membranes were prepared from rat neocortex using sucrose density gradients. The cerebral cortex of 10 rats was dissected from the rest of the brain and homogenized in 10 volumes (weight/volume) of ice-cold 0.32 M sucrose in 5 mM tris-acetate (pH 7.4) using a glass homogenizer fitted with a teflon pestle (10-15 strokes at 200 rpm). The homogenate was centrifuged at 100 g for 10 minutes and the supernatant collected and kept on ice. The pellet (PI) was rehomogenized in 20 mL of tris-sucrose and the homogenate recentrifuged. The combined supernatants were centrifuged at 21,500 g for 20 minutes. The pellet (P2) was resuspended in 1.2 M tris-sucrose and 15 mL of this mixture was added to ultracentrifuge tubes. On to this, 10 mL of 0.9 M sucrose was layered followed by a final layer of 5 mM tris-acetate, pH 8.0. Tubes were centrifuged at 100,000 g for 90 minutes. The synaptic plasma membranes located at the 0.9/1.2 M sucrose interface. were collected, resuspended in 50 mL of 5 mM tris-acetate, pH 7.4, and centrifuged at 48,000 g. The final pellet was resuspended in 50 mL of tris-acetate, pH 7.4, aliquoted, and then frozen until use.
The assay tissue (0.1 to 0.3 mg protein) was incubated with […] [^3H]-gabapentin in 10 mM HEPES buffer (pH 7.4 at 20° C., sodium free) in the presence of varying concentrations of test compound for 30 minutes at room temperature, before filtering onto GFB filters under vacuum. Filters were washed 3 times with 5 mL of ice cold 100 mM NaCl solution and dpm bound to filters was determined using liquid scintillation counting. Nonspecific binding was defined by that observed in the presence of […] gabapentin.
On the technique in general: In a radioligand displacement assay an active substance lowers the binding of a labelled ligand.

The mark [5] stands for this setting: IV, read-out: IV Mouse Maximal Electroshock (ED50).
Where [6] appears, read: IV, read-out: IV Mouse Ataxia (ED50).
[7] abbreviates: PO, read-out: PO Mouse Maximal Electroshock (ED50).

Where two headings read alike, the source gives them in different places.

T1 sequence (P54290 25-1091): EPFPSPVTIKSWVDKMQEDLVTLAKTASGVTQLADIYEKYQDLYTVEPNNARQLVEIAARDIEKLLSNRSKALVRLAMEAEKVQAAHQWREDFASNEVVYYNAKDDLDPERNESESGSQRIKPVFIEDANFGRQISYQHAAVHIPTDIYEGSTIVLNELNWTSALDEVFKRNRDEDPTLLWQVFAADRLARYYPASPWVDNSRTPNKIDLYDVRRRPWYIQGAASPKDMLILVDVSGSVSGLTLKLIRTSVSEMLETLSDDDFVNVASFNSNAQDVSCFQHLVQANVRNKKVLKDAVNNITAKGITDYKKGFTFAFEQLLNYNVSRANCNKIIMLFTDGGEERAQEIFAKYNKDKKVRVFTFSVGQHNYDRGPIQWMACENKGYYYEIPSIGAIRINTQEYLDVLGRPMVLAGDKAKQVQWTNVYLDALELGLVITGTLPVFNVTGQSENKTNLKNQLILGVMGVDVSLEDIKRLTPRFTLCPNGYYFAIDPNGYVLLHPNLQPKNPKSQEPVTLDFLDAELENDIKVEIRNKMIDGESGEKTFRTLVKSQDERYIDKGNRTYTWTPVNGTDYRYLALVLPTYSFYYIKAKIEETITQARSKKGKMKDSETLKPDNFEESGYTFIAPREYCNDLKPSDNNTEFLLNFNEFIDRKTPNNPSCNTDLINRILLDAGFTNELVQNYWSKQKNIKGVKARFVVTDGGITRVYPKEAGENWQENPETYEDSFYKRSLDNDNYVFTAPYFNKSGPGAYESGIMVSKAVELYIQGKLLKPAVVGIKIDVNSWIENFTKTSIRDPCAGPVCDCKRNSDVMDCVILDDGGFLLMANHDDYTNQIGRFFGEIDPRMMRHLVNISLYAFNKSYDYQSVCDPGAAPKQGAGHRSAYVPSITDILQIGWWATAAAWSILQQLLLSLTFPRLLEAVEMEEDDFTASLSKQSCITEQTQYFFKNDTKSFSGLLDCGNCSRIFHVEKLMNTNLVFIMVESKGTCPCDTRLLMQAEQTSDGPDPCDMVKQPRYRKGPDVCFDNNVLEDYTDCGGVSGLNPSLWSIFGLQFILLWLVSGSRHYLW

On to `CC(C)C[C@@H](CN)CC(=O)O` [(R)-IBG, (R)(−)-4-amino-3-(2-methylpropyl)butanoic acid], for which the ED50 in data set [1] (setting [5]), in data set [2] (setting [6]) and in data set [3] was more than 100 mg/kg throughout. Also, the IC50 (in general, the concentration at which inhibition is half-maximal) in data set [4] was found to be 860 nM.
For the compound `CC(C)CC(CN)CC(=O)O` (racemic) [(R,S)-i-C4H9, H, 4-amino-3-(2-methylpropyl)butanoic acid], the ED50 (commonly the dose at which the effect has come halfway, by size or by number of responders) in data set [1] (setting [5]) is 10 mg/kg; in data set [1] (setting [7]) it was 47 mg/kg; in data set [2] (setting [6]) it was more than 100 mg/kg; in data set [3], 4.8 mg/kg. The “time of maximum protection, threshold maximal electroshock” value in data set [3] (mice, 10 mg/kg intravenously, tested 1 hour to 8 hours) amounted to 2 h. In addition, the “# Protected, threshold maximal electroshock” value is on record as 2/10 in data set [3] (mice, 10 mg/kg intravenously, time of testing 1 hr.); 8/10 in data set [3] (mice, 10 mg/kg intravenously, time of testing 2 hr.); 4/10 in data set [3] (mice, 10 mg/kg intravenously, time of testing 4 hr.); 2/10 in data set [3] (mice, 10 mg/kg intravenously, time of testing 8 hr.). Besides, in data set [3] (mice, intravenously, two hour testing time), the “calculated EDSO, threshold maximal electroshock dose response” value is listed as 2.07 mg/kg. The compound further yielded an IC50 in data set [4] of 100 nM.
On to `CC(C)C[C@H](CN)CC(=O)O` [(S)-IBG, (S)-(+)-4-Amino-3-(2-methylpropyl)butanoic Acid], for which the ED50 in data set [1] (setting [5]) was 18 mg/kg; in data set [1] (setting [7]), 12 mg/kg; in data set [2] (setting [6]) it was more than 300 mg/kg; in data set [3], 4 mg/kg. The half-inhibitory concentration (IC50) in data set [4] is 44 nM.
In the case of `NCC1(CC(=O)O)CCCCC1` [Gabapentin, gabapentin, reference compound], the ED50 in data set [1] (setting [5]) is 75 mg/kg; in data set [1] (setting [7]) it was 200 mg/kg; in data set [2] ((IP), read-out: Mouse Ataxia (ED50)) it was more than 100 mg/kg; in data set [3], 4.3 mg/kg.
